“And” between values parts separate entries of the source, which are not always exact repeats. Equal values may be shown once.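 Cultured in 96-well plates, cells were exposed to test compound for 48 hours across five concentrations. The concentration for 50% growth inhibition is given as GI50. TGI is the concentration that stops growth completely.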
Assays:
Test in all cases: NCI anticancer screen, dose series, 48 h
SF-539 CNS = system: SF-539 CNS
ACHN renal = system: ACHN renal
OVCAR-4 ovarian = system: OVCAR-4 ovarian
EKVX NSCLC = system: EKVX NSCLC
HCT-116 colon = system: HCT-116 colon
NCI-H226 lung = system: NCI-H226 lung
SK-MEL-5 melanoma = system: SK-MEL-5 melanoma
LOX IMVI melanoma = system: LOX IMVI melanoma
HCC-2998 colon = system: HCC-2998 colon
SK-MEL-28 melanoma = system: SK-MEL-28 melanoma

SMILES	GI50 (SF-539 CNS)	TGI (SF-539 CNS)	GI50 (ACHN renal)	TGI (ACHN renal)	TGI (OVCAR-4 ovarian)	TGI (EKVX NSCLC)	GI50 (HCT-116 colon)	TGI (HCT-116 colon)	TGI (NCI-H226 lung)	GI50 (SK-MEL-5 melanoma)	TGI (SK-MEL-5 melanoma)	GI50 (LOX IMVI melanoma)	TGI (LOX IMVI melanoma)	GI50 (HCC-2998 colon) [µM]	TGI (HCC-2998 colon) [µM]	TGI (SK-MEL-28 melanoma)	GI50 (OVCAR-4 ovarian)	GI50 (EKVX NSCLC)	GI50 (SK-MEL-28 melanoma)	GI50 (NCI-H226 lung)
COc1ccc2c(c1)NC(=O)CN2c1nc(C)nc2ccccc12	0.000298 µM	0.00144 µM	0.000926 µM	> 100 µM	> 100 µM	> 100 µM	0.000369 µM	> 100 µM	> 100 µM	0.0004 µM	0.00186 µM	0.000526 µM	> 100 µM	0.000371	34.2					
CC(=O)Nc1cc(CN2CCCCC2)c(O)c2ncccc12		> 100 µM		72.2 µM	> 100 µM	> 100 µM		75.9 µM	86.1 µM		> 100 µM		84.8 µM			> 100 µM				
CCCCCC/C(CC(=O)CCC(=O)NCCc1ccccc1)=N\NC(=O)c1ccc2ccccc2c1O				> 100 µM	> 100 µM	> 100 µM		> 100 µM	> 100 µM		69.5 µM		48.5 µM		> 100	> 100 µM				
C[C@H](CCCOS(C)(=O)=O)[C@H]1CC[C@H]2[C@@H]3CC[C@@H]4C[C@H](OS(C)(=O)=O)CC[C@]4(C)[C@H]3CC[C@]12C	586 µM		395 µM		> 2500 µM	> 2500 µM	532 µM	1240 µM		1110 µM	> 2500 µM	483 µM	1270 µM			> 2500 µM	1850 µM	865 µM	1060 µM	418 µM
ClCCCN1CCCCC1CCl (stereo not drawn)		> 100 µM		> 100 µM	> 100 µM			> 100 µM			> 100 µM		> 100 µM		> 100	> 100 µM				
C#Cc1ccccc1N1C(=O)C=CC1=O				> 100 µM	> 100 µM	> 100 µM		> 100 µM	> 100 µM		> 100 µM					> 100 µM				
NC(N)=N/N=C/c1ccc(Br)cc1	2.33 µM	6.35 µM	7.2 µM	20.1 µM	31.6 µM		4.02 µM	15.8 µM	17.4 µM	2.36 µM	9.28 µM	6.45 µM	20.8 µM	1.14	3.16	18.8 µM	10.3 µM		5.61 µM	5.15 µM
COn1cc(C(=O)N=C(SC)SC)c2ccccc21	18.7 µM	43.4 µM	22 µM	47.7 µM	> 100 µM	77.5 µM			51.2 µM	15.7 µM	34.4 µM	17.6 µM	50.6 µM	19.8	36.8	> 100 µM	> 100 µM	25 µM	80 µM	14.1 µM
Nc1nc(Cl)c2ncn(Cc3ccc(-c4ccc(CCl)cc4)cc3)c2n1	10.9 µM	26.6 µM	4.5 µM	> 100 µM	43.6 µM	40.1 µM	6.71 µM	23.7 µM	17.9 µM	4.42 µM	18.9 µM					33.7 µM	8.12 µM	10.6 µM	14.7 µM	3.47 µM
C/C(=N\NS(=O)(=O)c1ccccc1)c1ccc[n+]([O-])n1		> 100 µM		> 100 µM	> 100 µM	> 100 µM		> 100 µM			> 100 µM				> 100	> 100 µM				
N#CCCn1c(CCC(=O)Nc2ccc(Cl)cc2Cl)n[nH]c1=S		> 100 µM		> 100 µM	> 100 µM			> 100 µM	> 100 µM		> 100 µM		> 100 µM		> 100	> 100 µM				
O=C1CC2OCC=C3CN4CCC56c7ccccc7N1C5C2C3CC46 (stereo not drawn) (tested in a mixture with another compound)	> 50 µg/mL	> 50 µg/mL	> 50 µg/mL	> 50 µg/mL	> 50 µg/mL	> 50 µg/mL	> 50 µg/mL	> 50 µg/mL	> 50 µg/mL	> 50 µg/mL	> 50 µg/mL	> 50 µg/mL	> 50 µg/mL			> 50 µg/mL	> 50 µg/mL	> 50 µg/mL	> 50 µg/mL	> 50 µg/mL
Cc1ccc(SSCCCCS(=O)O)cc1		38.1 µM		62.7 µM	32 µM	55.6 µM		> 100 µM			25.6 µM		76.1 µM		66.3	44.1 µM				
NC(=S)N=Nc1c(O)[nH]c2ccccc12	170 µM	361 µM	141 µM	394 µM	> 1000 µM	318 µM	152 µM	297 µM	307 µM	55.5 µM and 201 µM	651 µM	226 µM	> 1000 µM			> 1000 µM	239 µM	19.2 µM and 123 µM	713 µM	169 µM
CCCNC(=O)Nc1ccc2c(c1)Cc1cc(N(CCCl)CCCl)ccc1-2		66.2 µM		33.8 µM		77.4 µM		> 100 µM			33 µM		> 100 µM		67.6	35.7 µM				
CC(C)Cn1cnc2c(SCc3ccccn3)nc(N)nc21				> 100 µM	> 100 µM	> 100 µM		> 100 µM	> 100 µM		> 100 µM		> 100 µM		> 100	> 100 µM				
Nc1nc(N)c(-c2ccc(Cl)cc2)c(/C=C/c2ccc([N+](=O)[O-])cc2)n1	7.15 µM	30 µM	3.85 µM	> 100 µM	> 100 µM		3.97 µM	> 100 µM	> 100 µM	3.83 µM	> 100 µM	4.52 µM	> 100 µM			> 100 µM	4.54 µM		26.6 µM	20.3 µM
COc1ccc2c(c1)O/C(=C\c1ccc([N+](=O)[O-])s1)C2=O			1.41 µM	> 100 µM	4.91 µM				> 100 µM					2.91	> 100	> 100 µM	1.59 µM		17.1 µM	> 31.3 µM
OCC(O)C(OC1OC(CO)C(O)C(O)C1O)c1nn(-c2ccc(Cl)cc2)c2nc3cc(Cl)ccc3nc12 (stereo not drawn)		> 100 µM		> 100 µM	> 100 µM	> 100 µM		> 100 µM					> 100 µM		> 100	> 100 µM				

— PubChem BioAssay (NCI)
